Experimental findings from patent US9458170B2, “Compound of camptothecin and preparation and use thereof” (YULIANG LI, priority 2012, dated 2016) are described below.

Holding throughout (assay type): cell-based
For test [1], the system named is human colon cancer HT-29 cells. Kind of test: Cell Titre Glo luminescent cell viability assay, HT-29. Particulars: 72 h, incubated 3 days, 0.3 nM~10 μM, 0.1% DMSO. The protocol: (§1) The human lung cancer A549 cells were cultured in DMEM medium (Gibco®) supplemented with 10% fetal bovine serum (Hyclone®), and human colon cancer SW620, HT-29 cells and human prostate cancer PC-3 cells were cultured in RPMI-1640 medium (Gibco®) supplemented with 10% fetal bovine serum (Hyclone®). The cells described above were cultured in 25 cm^2 or 75 cm^2 plastic cell culture flask (Corning®) filled with 95% air and 5% CO2 at 37° C., for 2˜3 passages per week. Cells were seeded in 96 well cell culture plates (Corning®) at a density of 1×10^3 cells/well (A549), 2×10^3 cells/well (SW620 and HT-29), 3×10^3 cells/well (PC-3), 195 μL/well, and cultured at 37° C., under 95% air and 5% CO2. After 24 h, compounds of this disclosure were added. All the compounds (dissolved in 100% DMSO) were serially diluted three times by 100% DMSO starting from 10 mM. 4 μL of the solution of each concentration was added to 96 μL serum free medium, respectively, and 5 μL diluted solution by medium was added to the culture plates seeded with the cancer cells. The final concentration of DMSO in culture medium was 0.1%, and the final concentration of the compound was 0.3 nM˜10 μM. The said cells were incubated at 37° C. for 3 days. 3 Days later, the viabilities of viable cells were measured by luminescent plate reader according to the reaction of ATP and luciferase (Cell Titre Glo® Luminescent Cell Viability Assay, Promega). This method can be used to evaluate effectiveness of the compounds according to their influences on the cell growth. The dose response curves were generated by the obtained data, and IC50 values were calculated with the program Prism.

In test [2] the test system is human colon cancer SW620 cells. The test can be described thus: Cell Titre Glo luminescent cell viability assay, SW620. The note with it: SW-620, 72 h, incubated 3 days, 0.3 nM~10 μM, 0.1% DMSO. As to the method:
as §1

Test [3] has as its system human lung cancer A549 cells. The test can be described thus: Cell Titre Glo luminescent cell viability assay, A549. The note with it: 72 h, incubated 3 days, 0.3 nM~10 μM, 0.1% DMSO. The protocol:
as §1

Test [4] deals with human prostate cancer PC-3 cells. The test can be described thus: Cell Titre Glo luminescent cell viability assay, PC-3. Particulars: 72 h, incubated 3 days, 0.3 nM~10 μM, 0.1% DMSO. The protocol:
as §1

The structures appear in SMILES notation.

In the case of `CC[C@@]1(O)C(=O)OCc2c1cc1n(c2=O)Cc2cc3cc(OC)ncc3nc2-1` [Example 1, (S)-4-ethyl-4-hydroxy-9-methoxy-1H-pyrano[3′,4′:6,7]indolizino[1,2-b][1,7]naphthyridine-3,14(4H,12H)-dione], the IC50 (in general, the concentration that gives 50% inhibition) in test [1] was less than 100 nM; in test [2], less than 100 nM; in test [3] it was less than 100 nM; in test [4], less than 500 nM.
As to `CC[C@@]1(O)C(=O)OCc2c1cc1n(c2=O)Cc2cc3cc4c(cc3nc2-1)CCO4` [Example 6, (S)-7-ethyl-7-hydroxy-10,13-dihydro-2H-furo[2,3-g]pyrano[3′,4′:6,7]indolizino [1,2-b]quinoline-8,11(3H,7H)-dione], the concentration for half-maximal inhibition (IC50) was less than 1000 nM in test [1], less than 500 nM in test [2], more than 1000 nM in test [3] and more than 1000 nM in test [4].
As to `CC[C@@]1(O)C(=O)OCc2c1cc1n(c2=O)Cc2cc3c(O)nccc3nc2-1` [Example 3, (S)-7-ethyl-1,7-dihydroxy-7H-pyrano[3′,4′:6,7]indolizino[1,2-b][1,6]naphthyridine-8,11(10H,13H)-dione], the IC50 in test [1] was less than 1000 nM; in test [2] it was less than 500 nM; in test [3] it was less than 500 nM; in test [4], more than 1000 nM.
Regarding `CC[C@@]1(O)C(=O)OCc2c1cc1n(c2=O)Cc2c-1nc1cc(F)c(OC)cc1c2N` [Example 11, (S)-11-amino-4-ethyl-8-fluoro-4-hydroxy-9-methoxy-1H-pyrano[3′,4′:6,7]indolizino[1,2-b]quinoline-3,14(4H,12H)-dione], the concentration for half-maximal inhibition (IC50) in test [1] was less than 500 nM; in test [2] it was less than 100 nM; in test [3], less than 100 nM; in test [4] it was less than 100 nM.
Regarding `CC[C@@]1(O)C(=O)OCc2c1cc1n(c2=O)Cc2cc3cc(OC)c(F)cc3nc2-1` [Example 9, (S)-4-ethyl-8-fluoro-4-hydroxy-9-methoxy-1H-pyrano[3′,4′:6,7]indolizino[1,2-b]quinoline-3,14(4H,12H)-dione], the concentration for half-maximal inhibition (IC50) in test [1], in test [2], in test [3] and in test [4] was less than 100 nM each time.
On to `CC[C@@]1(O)C(=O)OCc2c1cc1n(c2=O)Cc2cc3nc(OC)ccc3nc2-1` [Example 5, (S)-7-ethyl-7-hydroxy-2-methoxy-7H-pyrano[3′,4′:6,7]indolizino[1,2-b][1,5]naphthyridine-8,11(10H,13H)-dione], for which the half-maximal inhibitory concentration (IC50) in test [1] was less than 500 nM; in test [2] it was less than 100 nM; in test [3], less than 100 nM; in test [4] it was less than 500 nM.
As to `CC[C@@]1(O)C(=O)OCc2c1cc1n(c2=O)Cc2c-1nc1cc(F)c(OC)cc1c2C` [Example 12, (S)-4-ethyl-8-fluoro-4-hydroxy-9-methoxy-11-methyl-1H-pyrano[3′,4′:6,7]indolizino[1,2-b]quinoline-3,14(4H,12H)-dione], the IC50 in test [1], in test [2], in test [3] and in test [4] was less than 100 nM throughout.
In the case of `CC[C@@]1(O)C(=O)OCc2c1cc1n(c2=O)Cc2cc3c(OC)nccc3nc2-1` [Example 2, (S)-7-ethyl-7-hydroxy-1-methoxy-7H-pyrano[3′,4′:6,7]indolizino[1,2-b][1,6]naphthyridine-8,11(10H,13H)-dione], the IC50 in test [1] was less than 1000 nM; in test [2], less than 500 nM; in test [3] it was more than 1000 nM; in test [4] it was more than 1000 nM.
`CC[C@@]1(O)C(=O)OCc2c1cc1n(c2=O)Cc2cc3ccc(OC)c(O)c3nc2-1` [Example 10, (S)-4-ethyl-4,7-dihydroxy-8-methoxy-1H-pyrano[3′,4′:6,7]indolizino[1,2-b]quinoline-3,14(4H,12H)-dione]: the IC50 in test [1] is less than 500 nM; in test [2], less than 100 nM; in test [3] it was less than 500 nM; in test [4], less than 500 nM.
Take `CC[C@@]1(O)C(=O)OCc2c1cc1n(c2=O)Cc2cc3cc(O)c(F)cc3nc2-1` [Example 8, (S)-4-ethyl-8-fluoro-4,9-dihydroxy-1H-pyrano[3′,4′:6,7]indolizino[1,2-b]quinoline-3,14(4H,12H)-dione]: the half-maximal inhibitory concentration (IC50) in test [1], in test [2], in test [3] and in test [4] was less than 100 nM each time.
As for `CC[C@@]1(O)C(=O)OCc2c1cc1n(c2=O)Cc2cc3c(N(C)C)nccc3nc2-1` [Example 4, (S)-1-(dimethylamino)-7-ethyl-7-hydroxy-7H-pyrano[3′,4′:6,7]indolizino[1,2-b][1,6]naphthyridine-8,11(10H,13H)-dione], the concentration for half-maximal inhibition (IC50) was more than 1000 nM in test [1], less than 100 nM in test [2], less than 100 nM in test [3] and less than 500 nM in test [4].
As for `CC[C@@]1(O)C(=O)OCc2c1cc1n(c2=O)Cc2cc3cc(OC)c(O)cc3nc2-1` [Example 7, (S)-4-ethyl-4,8-dihydroxy-9-methoxy-1H-pyrano[3′,4′:6,7]indolizino[1,2-b]quinoline-3,14(4H,12H)-dione], the IC50 in test [1], in test [2], in test [3] and in test [4] was less than 100 nM in each case.
